The nature of data set [1]: clinical. To be noted: human, in vivo.
The conditions of data set [2]: human, in vivo.
The nature of data set [3]: Clinical drug interaction study (H8Y-MC-HBCF), plasma and urine pharmacokinetics in healthy subjects. To be noted: for Tmax: median (min–max).
The test system of data set [4] is Pept1 knockout mice. Set-up: method as in data on file, Eli Lilly and Company. Particulars: ref data on file, Eli Lilly and Company; cited from earlier work.
The target in data set [5] is T1, PEPT1 (Homo sapiens, UniProt P46059).
T1 sequence (P46059 1-708): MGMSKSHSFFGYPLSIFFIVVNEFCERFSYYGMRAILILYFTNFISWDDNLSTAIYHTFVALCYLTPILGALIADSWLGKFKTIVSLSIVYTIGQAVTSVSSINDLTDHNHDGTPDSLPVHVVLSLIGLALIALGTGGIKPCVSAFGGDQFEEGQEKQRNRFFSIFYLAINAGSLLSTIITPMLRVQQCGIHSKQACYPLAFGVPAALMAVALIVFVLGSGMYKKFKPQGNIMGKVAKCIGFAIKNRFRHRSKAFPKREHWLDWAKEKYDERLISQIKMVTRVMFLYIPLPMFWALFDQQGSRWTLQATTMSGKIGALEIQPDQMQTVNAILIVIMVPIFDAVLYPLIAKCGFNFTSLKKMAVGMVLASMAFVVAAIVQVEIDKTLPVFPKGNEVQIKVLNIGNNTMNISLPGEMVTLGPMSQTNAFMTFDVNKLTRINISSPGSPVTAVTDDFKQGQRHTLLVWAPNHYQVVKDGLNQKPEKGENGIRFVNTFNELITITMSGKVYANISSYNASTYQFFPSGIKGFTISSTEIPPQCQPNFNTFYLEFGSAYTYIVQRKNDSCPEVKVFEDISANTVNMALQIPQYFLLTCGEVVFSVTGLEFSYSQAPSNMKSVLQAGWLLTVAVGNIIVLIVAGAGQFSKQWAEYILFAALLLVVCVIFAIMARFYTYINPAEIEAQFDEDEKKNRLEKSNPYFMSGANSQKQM
As to the kind of experiment: Inhibition of PEPT1-mediated [14C]Gly-Sar uptake in transfected HeLa cells. It counts as in vitro ADME. Set-up: expressed in transfected cells; host or cells: HeLa cells (ATCC), transiently transfected with Fugene 6, pcDNA3.1 vector. Particulars: 25 μM [14C]Gly-Sar; LY2140023 5 to 1000 μM; 3 minutes; read-out: IC50 against Gly-Sar, mean of two separate experiments. The procedure:
An inhibition assay was conducted using 25 μM [^14C]Gly-Sar (0.278 μCi/ml) as a probe substrate to assess if the uptake of [^14C]Gly-Sar was inhibited by prodrug (5 to 1000 μM). The cells were incubated for 3 minutes in uptake buffer containing 25 μM [^14C]Gly-Sar and different concentrations of LY2140023 at room temperature. The uptake was corrected for background determined by parallel experiment in cells transfected with pcDNA3.1 empty vector. Cell lysing and protein quantification were performed as described above.

For data set [6], the system named is MDCK-MDR1 cells. Set-up: method as in data on file, Eli Lilly and Company. Particulars: ref data on file, Eli Lilly and Company; cited from earlier work.
Data set [7] can be described thus: Clinical study safety (adverse events) in healthy subjects. It counts as in vivo, human.
Data set [8] deals with T1, PEPT1. Nature of the data set: Proton- and time-dependent transport of prodrug and active moiety in PEPT1 transfected HeLa cells. It counts as in vitro ADME. Set-up: expressed in transfected cells; host or cells: HeLa cells (ATCC), transiently transfected with Fugene 6, pcDNA3.1 vector. To be noted: 30 μM, pH 6.0 or 7.5, PEPT1 vs empty vector transfected HeLa cells. The procedure:
The PEPT1 mediated [^14C]LY2140023 (30 μM) and [^14C]LY404039 (30 μM) uptake was measured in cells 24 hours post transfection. The time-dependent transport of LY2140023 and LY404039 was conducted using buffers prepared at either pH 6.0 or 7.5 as described above. The cells transfected with empty pcDNA3.1 vector were used to measure the passive diffusion of LY2140023 and LY404039. The cells were incubated for 1, 2.5, 5, 7.5, 10, and 15 minutes at room temperature and were washed, lysed, and contents quantified as described above.

Data set [9] concerns the target T1, PEPT1. As to the kind of experiment: Potential for clinical DDI: estimated GI concentration (I2) versus in vitro IC50. Set-up: expressed in transfected cells; host or cells: HeLa cells (ATCC), transiently transfected with Fugene 6, pcDNA3.1 vector. Particulars: dose divided by 250 ml (glass of water). As to the method: These concentrations (I2) were obtained by dividing the recommended clinical dose by a volume of 250 ml (volume of glass of water) (Table 3).
Subsequently, to normalize the inhibitory potential to the clinical dose, the in vitro IC50 values were […] (the volume of a glass of water).

In data set [10] the target is T1, PEPT1. Nature of the data set: Inhibition of PEPT1-mediated [14C]LY2140023 uptake in transfected HeLa cells. Particulars: 10 μM [14C]LY2140023.
Data set [11] addresses PEPT1. Set-up: method as in Ganapathy et al. (1998). Particulars: ref Ganapathy et al. (1998); read-out: Ki value (printed in column IC50 against Gly-Sar); cited from earlier work.
The mark [12] stands for this setting: LY2140023 80 mg + valacyclovir 1000 mg coadministered, geometric mean (CV%).
Setting [13] is: human, plasma, oral, Cmax LS Geometric Mean, LY2140023 + Valacyclovir (Test).
Where [14] appears, read: human, plasma, oral, Cmax, LY2140023 80 mg + valacyclovir 1000 mg coadministered, geometric mean (CV%).
[15] abbreviates: human, plasma, oral, LY2140023 80 mg + valacyclovir 1000 mg coadministered.

Entries after “also recorded” stand apart in the source; their conditions may differ. Where two headings read alike, the source gives them in different places.

In general, AUC(0-inf) refers to the area under the concentration-time curve extrapolated to infinity. In general, Cmax refers to the peak of the concentration-time curve. The Tmax is the time at which the peak concentration occurs. As for `Nc1nc2c(ncn2COCCO)c(=O)[nH]1` [Acyclovir], the AUC(0-inf) in [1] (AUC(0-∞)) and in data set [1] (AUC(0-∞) LS Geometric Mean) was 17500 ng·h/mL in each case. Moreover, the Cmax in [1] (Cmax) and in data set [1] (Cmax LS Geometric Mean) was 4400 ng/mL each time. In addition, in data set [1] (tmax), the Tmax worked out at 2.5 h. For the same compound, the fe in [2] was 0.460 (32.0).

The term Vd/F denotes the volume of distribution divided by bioavailability. For orientation: half-life means the time in which the quantity being followed falls by half. Read a low half-life as rapid decline. What is called IC50 is the concentration at which inhibition is half-maximal. For `CSCC[C@H](N)C(=O)N[C@@]1(C(=O)O)CS(=O)(=O)[C@H]2[C@H](C(=O)O)[C@H]21` [LY2140023, Pomaglumetad methionil], the Vd/F in data set [1] (Vz/F) came out at 166 L. The CL/F is on record as 65.9 (31) L/hour in data set [3] (setting [12]) and 60.2 (27) L/hour in data set [3] (single 80-mg dose of LY2140023 alone, geometric mean (CV%)). Further, the half-life in [3] (human, plasma, oral, 80 mg) is 1.92 h. Moreover, the AUC(0-inf) in data set [3] (human, plasma, oral, 80 mg, AUC(0-∞) LS Geometric Mean, LY2140023 Alone (Reference)) came to 1350 ng·h/mL; in data set [3] (human, plasma, oral, 80 mg, AUC(0-∞), single 80-mg dose of LY2140023 alone, geometric mean (CV%)), 1330 ng·h/mL; in data set [3] (human, plasma, oral, AUC(0-∞) LS Geometric Mean, LY2140023 + Valacyclovir (Test)), 1220 ng·h/mL; in [3] (human, plasma, oral, AUC(0-∞), LY2140023 80 mg + valacyclovir 1000 mg coadministered, geometric mean (CV%)), 1210 ng·h/mL. For the same compound, the maximum concentration (Cmax) in [3] (human, plasma, oral, 80 mg, Cmax LS Geometric Mean, LY2140023 Alone (Reference)) came out at 310 ng/mL; in data set [3] (human, plasma, oral, 80 mg, Cmax, single 80-mg dose of LY2140023 alone, geometric mean (CV%)), 307 ng/mL; in data set [3] (setting [13]), 275 ng/mL; in [3] (setting [14]), 272 ng/mL. Also, the Tmax in data set [3] (human, plasma, oral, 80 mg, single 80-mg dose of LY2140023 alone) was 3 h; in data set [3] (setting [15]), 3 h. For the same compound, in data set [4], the “AUC0–∞ in Pept1 knockout mice relative to wildtype mice” value was 10%. Besides, the “Cmax in Pept1 knockout mice relative to wildtype mice” value in data set [4] is 10%. Moreover, in [5], the IC50 was found to be 18 µM. Moreover, in data set [6], the passive permeability entry was “approximately 1 × 10^−6 cm/s”. For the same compound, the “most common AEs” value in data set [7] (after prodrug alone (80 mg)) was “nausea, dizziness, somnolence, and headache”. For the same compound, the PEPT1 substrate status entry in [8] was “a PEPT1 substrate; also recorded: PEPT1-mediated, proton-dependent process”; in data set [8] (listed as LY2140023 monohydrate) it was “is a substrate of PEPT1”. Also, the “Estimated Intestinal Concentration” value in data set [9] is listed as 0.873 mM.

As a reminder, the AUC(0-t) is exposure summed from dosing to a finite time, without extrapolation to infinity. One may read the Ki as a measure of affinity in units of concentration, obtained from inhibition or displacement. As for `CC(C)[C@H](N)C(=O)OCCOCn1cnc2c(=O)[nH]c(N)nc21` [Valacyclovir], the IC50 in data set [10] (IC50 against LY2140023, first of two separate experiments) was 410 ± 50 µM; in [10] (IC50 against LY2140023, second of two separate experiments), 500 ± 110 µM; in data set [10] (Mean IC50 against LY2140023, mean of two separate experiments) it was 460 µM. Also, in data set [3] (setting [12]), the “fe (fraction of the dose excreted in urine)” value is listed as 0.00776 (25.4). The AUC(0-t) in data set [3] (human, plasma, oral, 1000 mg, AUC(0-3) LS Geometric Mean, Valacyclovir Alone (Reference)) stood at 309 ng·h/mL; in data set [3] (human, plasma, oral, 1000 mg, AUC(0-3), single 1000-mg dose of valacyclovir alone, geometric mean (CV%), n = 22) it was 311 ng·h/mL; in data set [3] (human, plasma, oral, AUC(0-3) LS Geometric Mean, Valacyclovir + LY2140023 (Test)), 278 ng·h/mL; in data set [3] (human, plasma, oral, AUC(0-3), LY2140023 80 mg + valacyclovir 1000 mg coadministered, geometric mean (CV%)), 270 ng·h/mL. Moreover, the Cmax in data set [3] (human, plasma, oral, 1000 mg, Cmax LS Geometric Mean, Valacyclovir Alone (Reference)) is 245 ng/mL; in data set [3] (human, plasma, oral, 1000 mg, Cmax, single 1000-mg dose of valacyclovir alone, geometric mean (CV%)), 245 ng/mL; in [3] (setting [13]) it was 258 ng/mL; in data set [3] (setting [14]), 255 ng/mL. Further, the Tmax was found to be 2 h in data set [3] (human, plasma, oral, 1000 mg, single 1000-mg dose of valacyclovir alone) and 2 h in [3] (setting [15]). This compound showed a CL renal in [3] (human, urine and plasma, oral, 1000 mg) of 262 mL/min. Also, the fe in [3] (single 1000-mg dose of valacyclovir alone, geometric mean (CV%)) is reported as 0.00703 (64.7). Moreover, in [11], the Ki is 740 µM. For the same compound, in [7] (after 1000 mg of valacyclovir alone), the adverse events entry is “mild AE of urticaria; also recorded: one severe AE of headache”.
